These results are taken from EP0535241A1, “NOVEL LEUCINE AMINOPEPTIDASE” (SUNTORY LIMITED, priority 1991, dated 1992).

The target of this assay is T1, leucine aminopeptidase of human placenta origin (PLAP), purified from human retroplacental sera, containing SEQ ID NOs: 1, 2, 3 and 4 (Homo sapiens, UniProt Q9UIQ6).
T1 construct: PLAP was purified by fractionating 900 ml of retroplacental sera by ammonium sulfate fractionation; from tissue; host or cells: human retroplacental sera
Nature of the assay: PLAP enzyme assay with L-leucyl-P-nitroanilide as substrate (Lineweaver-Burk plot). Type of assay: biochemical. Here is the method: An assay of PLAP was carried out according to a method of Kurauchi et al. (Kurauchi, O. et al. Enzyme, 35, p197-205, 1986) using L-leucyl-P-nitroanilide as a substrate. Namely, a substrate adjusted to 1.6 mM of a final concentration was added to a 20 mM Tris-HCl buffer (pH 7.2) (1.0 ml) in the presence of a 20 mM L-methionine, and the mixture was incubated at 37°C for 10 minutes. After finishing the reaction, 3.0 ml of a 1M acetate buffer (pH 4.2) was added to terminate the reaction, and the amount of released P-nitroanilide was measured by absorption of 405 nm. One unit of the enzyme is defined as an activity of the enzyme that releases 1 µ mole of the P-nitroanilide for one minute.

Setting [1] is: purified PLAP, calculated according to Lineweaver-Burk plot, 20 mM Tris-HCl buffer (pH 7.2), 37°C.

T1 sequence (Q9UIQ6 155-1025 limits assumed): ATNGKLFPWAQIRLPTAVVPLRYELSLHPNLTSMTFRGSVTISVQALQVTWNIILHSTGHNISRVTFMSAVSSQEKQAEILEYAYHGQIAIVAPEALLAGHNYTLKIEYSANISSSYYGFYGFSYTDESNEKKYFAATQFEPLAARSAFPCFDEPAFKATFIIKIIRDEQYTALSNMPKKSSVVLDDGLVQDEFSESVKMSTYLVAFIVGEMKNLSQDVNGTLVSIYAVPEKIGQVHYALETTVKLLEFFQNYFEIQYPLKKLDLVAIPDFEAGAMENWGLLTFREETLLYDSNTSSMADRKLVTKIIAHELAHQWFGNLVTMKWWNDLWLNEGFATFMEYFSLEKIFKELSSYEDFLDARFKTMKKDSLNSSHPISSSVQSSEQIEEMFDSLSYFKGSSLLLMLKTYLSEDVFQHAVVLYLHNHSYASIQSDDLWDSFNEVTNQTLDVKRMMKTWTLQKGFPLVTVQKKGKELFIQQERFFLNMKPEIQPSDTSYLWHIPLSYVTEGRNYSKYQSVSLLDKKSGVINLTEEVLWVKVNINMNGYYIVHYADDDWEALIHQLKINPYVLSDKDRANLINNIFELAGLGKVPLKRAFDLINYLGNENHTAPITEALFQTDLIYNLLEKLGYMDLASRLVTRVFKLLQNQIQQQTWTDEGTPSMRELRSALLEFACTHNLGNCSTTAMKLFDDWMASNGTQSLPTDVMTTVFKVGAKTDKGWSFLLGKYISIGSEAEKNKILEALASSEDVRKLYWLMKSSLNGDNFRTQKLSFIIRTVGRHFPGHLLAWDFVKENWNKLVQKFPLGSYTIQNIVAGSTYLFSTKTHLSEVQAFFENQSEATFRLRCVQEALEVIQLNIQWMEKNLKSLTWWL

On to `CC(C)C[C@H](N)C(=O)Nc1ccc([N+](=O)[O-])cc1` [L-Leucyl-P-nitroanilide], for which, under setting [1], the “Km value for degradation of L-Leucyl-P-nitroanilide” value is recorded as 4.17 mM and the “Vmax for degradation of L-Leucyl-P-nitroanilide” value is given as 108 µmol/min/g.

Regarding `CSCC[C@H](N)C(=O)O` [L-methionine], the “inhibition of L-leucyl-P-nitroanilide degrading activity by L-methionine” value (assay carried out in the presence of 20 mM L-methionine, substrate 1.6 mM) was “not inhibited”.
